Assay results as given in patent US11111251B2, “Positive allosteric modulators of the muscarinic acetylcholine receptor M1” (Vanderbilt University, priority 2016, dated 2021).
Like-named read-outs stand apart in the source and are kept apart here.

Molecular target: T1, human mAChR M1 (Homo sapiens, UniProt P11229)
T1 sequence (P11229 1-460): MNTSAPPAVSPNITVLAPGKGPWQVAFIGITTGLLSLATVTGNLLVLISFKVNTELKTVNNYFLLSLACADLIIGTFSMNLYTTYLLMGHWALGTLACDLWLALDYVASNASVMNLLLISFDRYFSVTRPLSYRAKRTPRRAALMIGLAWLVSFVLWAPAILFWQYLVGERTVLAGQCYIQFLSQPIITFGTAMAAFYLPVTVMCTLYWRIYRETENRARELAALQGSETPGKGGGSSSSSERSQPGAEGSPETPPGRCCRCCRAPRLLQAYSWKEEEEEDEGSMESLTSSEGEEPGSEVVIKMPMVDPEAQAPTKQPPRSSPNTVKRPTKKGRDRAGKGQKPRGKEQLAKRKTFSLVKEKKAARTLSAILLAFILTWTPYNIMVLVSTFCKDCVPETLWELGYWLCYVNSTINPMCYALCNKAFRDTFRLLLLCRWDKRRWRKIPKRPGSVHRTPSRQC
Experiment: mAChR M1 cell-based functional assay: calcium mobilization, positive allosteric modulator mode (increase in EC20 acetylcholine response)
Settings: for Emax: read-out: Human M1 Emax (%)
Text: a. Cell Lines Expressing Muscarinic Acetylcholine Receptors
Chinese hamster ovary (CHO-K1) cells stably expressing rat (r)M1 were purchased from the American Type Culture Collection and cultured according to their indicated protocol. CHO cells stably expressing human (h)M2, hM3, and hM5 were described previously (Levey, et al., 1991); hMi and hM4 cDNAs were purchased from Missouri S&T cDNA Resource; rM4 cDNA was provided by T. I. Bonner (National Institutes of Health, Bethesda, Md.). rM2 and rM3 were cloned from a rat brain cDNA library and sequence verified. hMi, rM2, rM3, hM4, and rM4 cDNAs were used to stably transfect CHO-K1 cells purchased from the American Type Culture Collection using Lipofectamine2000. To make stable rM2, hM2, rM3, hM4, and rM4 cell lines for use in calcium mobilization assays, these cells also were stably transfected with a chimeric G-protein (Gqi5) (provided by B. R. Conklin, University of California, San Francisco) using Lipofectamine 2000. rMi, hMi, rM3, hM3, rM5, and hM5 cells were grown in Ham's F-12 medium containing 10% heat-inactivated fetal bovine serum (FBS), 20 mM HEPES, and 50 μg/mL G418 sulfate. rM2-Gqi5, hM2-Gqi5, and hM4-Gqi5 cells were grown in the same medium also containing 500 μg/mL Hygromycin B. Stable rM4-Gqi5 cells were grown in DMEM containing 10% heat-inactivated FBS, 20 mM HEPES, 400 μg/mL G418 sulfate, and 500 μg/mL Hygromycin B.
b. Cell-Based Functional Assay of Muscarinic Acetylcholine Receptor Activity
For high throughput measurement of agonist-evoked increases in intracellular calcium, CHO-K1 cells stably expressing muscarinic receptors were plated in growth medium lacking G418 and hygromycin at 15,000 cells/20 μL/well in Greiner 384-well black-walled, tissue culture (TC)-treated, clear-bottom plates (VWR). Cells were incubated overnight at 37° C. and 5% CO2. The next day, cells were washed using an ELX 405 (BioTek) with four washes (80 μL) of assay buffer then aspirated to 20 μL. Next, 20 μL of 16 μM Fluo-4/acetoxymethyl ester (Invitrogen, Carlsbad, Calif.) prepared as a 2.3 mM stock in DMSO and mixed in a 1:1 ratio with 10% (w/v) Pluronic F-127 and diluted in assay buffer was added to the wells and the cell plates were incubated for 50 min at 37° C. and 5% CO2. Dye was removed by washing with the ELX 405 (four […], washes of assay buffer) then aspirated to 20 μL. Compound master plates were formatted in an 11 point CRC format (1:3 dilutions) in 100% DMSO with a starting concentration of 10 mM using the BRAVO liquid handler (Agilent). Test compound CRCs were then transferred to daughter plates (240 nL) using the Echo acoustic plate reformatter (Labcyte, Sunnyvale, Calif.) and then diluted into assay buffer (40 μL) to a 2× stock using a Thermo Fisher Combi (Thermo Fisher Scientific, Waltham, Mass.).
Calcium flux was measured using the Functional Drug Screening System (FDSS) 6000 (Hamamatsu Corporation, Tokyo, Japan) as an increase in the fluorescent static ratio. Compounds were applied to cells (20 μL, 2×) using the automated system of the FDSS 6000 at 4 s into the 300 s protocol and the data were collected at 1 Hz. At 144 s into the 300s protocol, 10 μL of an EC20 concentration of the muscarinic receptor agonist acetylcholine was added (5×), followed by the addition of 12 μL an EC80 concentration of acetylcholine at the 230 s time point (5×). Agonist activity was analyzed as a concentration-dependent increase in calcium mobilization upon compound addition. Positive allosteric modulator activity was analyzed as a concentration-dependent increase in the EC20 acetylcholine response. Antagonist activity was analyzed as a concentration-dependent decrease in the EC80 acetylcholine response. Concentration-response curves were generated using a four-parameter logistical equation in XLfit curve fitting software (IDBS, Bridgewater, N.J.) for Excel (Microsoft, Redmond, Wash.) or Prism (GraphPad Software, Inc., San Diego, Calif.).

[1] = Table 1, mAChR M1 cell-based functional assay, PAM mode, species not given, read-out: EC50
[2] = Table 2, human M1, read-out: Human M1 EC50

EC50 [1] [µM] | EC50 [2] [µM] | Emax (Table 2, human M1) [%] | Compound
> 10 | – | – | Cc1ccc(Oc2cc(C(=O)NCC3CCCO3)nc3ccsc23)cn1 (centres unmarked) [Compound 35, 7-[(6-methyl-3-pyridyl)oxy]-N-(tetrahydrofuran-2-ylmethyl)thieno[3,2-b]pyridine-5-carboxamide]
> 10 | – | – | Cc1ccc(Oc2cc(C(=O)NC3CCCCNC3=O)nc3ccsc23)cn1 (centres unmarked) [Compound 36, 7-[(6-methyl-3-pyridyl)oxy]-N-(2-oxoazepan-3-yl)thieno[3,2-b]pyridine-5-carboxamide]
3.64 | – | – | Cn1cc2c(-c3cc(F)c(Cc4cc(C(=O)N[C@H]5CCCC[C@@H]5O)nc5ccsc45)c(F)c3)cccc2n1 [Compound 41, 7-[[2,6-difluoro-4-(2-methylindazol-4-yl)phenyl]methyl]-N-[(1S,2S)-2-hydroxycyclohexyl]thieno[3,2-b]pyridine-5-carboxamide]
0.36 | – | – | Cc1ccc(Cc2cc(C(=O)N[C@H]3CCC[C@@H]3O)nc3ccsc23)cn1 [Compound 42, N-[(1S,2S)-2-hydroxycyclopentyl]-7-[(6-methyl-3-pyridyl)methyl]thieno[3,2-b]pyridine-5-carboxamide]
1.99 | – | – | Cc1ccc(Cc2cc(C(=O)NC3CCCCC3)nc3ccsc23)cn1 [Compound 43, N-cyclohexyl-7-[(6-methyl-3-pyridyl)methyl]thieno[3,2-b]pyridine-5-carboxamide]
3.77 | – | – | Cc1ccc(Cc2cc(C(=O)N[C@@H]3CC[C@H]3O)nc3ccsc23)cn1 [Compound 44]
0.08 | – | – | Cc1ccc(Cc2cc(C(=O)N[C@H]3CCOC[C@@H]3O)nc3ccsc23)cn1 [Compound 45, N-[(3R,4S)-3-hydroxytetrahydropyran-4-yl]-7-[(6-methyl-3-pyridyl)methyl]thieno[3,2-b]pyridine-5-carboxamide]
0.029 | – | – | Cc1ccc(Cc2cc(C(=O)N[C@H]3COCC[C@@H]3O)nc3ccsc23)cn1 [Compound 46, N-[(3S,4S)-4-hydroxytetrahydropyran-3-yl]-7-[(6-methyl-3-pyridyl)methyl]thieno[3,2-b]pyridine-5-carboxamide]
0.117 | – | – | Cc1ccc(Cc2cc(C(=O)N[C@H]3CCCCC[C@@H]3O)nc3ccsc23)cn1 [Compound 47, N-[(1S,2S)-2-hydroxycycloheptyl]-7-[(6-methyl-3-pyridyl)methyl]thieno[3,2-b]pyridine-5-carboxamide]
5.77 | – | – | CO[C@H]1CCCC[C@@H]1NC(=O)c1cc(Cc2ccc(C)nc2)c2sccc2n1 [Compound 48, N-[(1S,2S)-2-methoxycyclohexyl]-7-[(6-methyl-3-pyridyl)methyl]thieno[3,2-b]pyridine-5-carboxamide]
> 10 | – | – | Cc1ccc(Cc2cc(C(=O)NC3CCCC(O)C3)nc3ccsc23)cn1 (centres unmarked) [Compound 49, N-(3-hydroxycyclohexyl)-7-[(6-methyl-3-pyridyl)methyl]thieno[3,2-b]pyridine-5-carboxamide]
4.96 | – | – | Cc1ccc(Cc2cc(C(=O)NC3CCOCC3)nc3ccsc23)cn1 [Compound 50, 7-[(6-methyl-3-pyridyl)methyl]-N-tetrahydropyran-4-yl-thieno[3,2-b]pyridine-5-carboxamide]
– | 3.61 | 76.9 | Cn1cc(-c2ccc(Cc3cc(C(=O)N[C@H]4CCCC[C@@H]4O)nc4ccsc34)c(F)c2)cn1 [Compound 51, 7-[[2-fluoro-4-(1-methylpyrazol-4-yl)phenyl]methyl]-N-[(1S,2S)-2-hydroxycyclohexyl]thieno[3,2-b]pyridine-5-carboxamide]
– | 1.96 | 76 | Cn1cc(-c2ccc(Cc3cc(C(=O)N[C@H]4CCOC[C@@H]4O)nc4ccsc34)c(F)c2)cn1 [Compound 52, 7-[[2-fluoro-4-(1-methylpyrazol-4-yl)phenyl]methyl]-N-[(3R,4S)-3-hydroxytetrahydropyran-4-yl]thieno[3,2-b]pyridine-5-carboxamide]
– | 3.07 | 79 | Cn1cc(-c2ccc(Cc3cc(C(=O)N[C@H]4COCC[C@@H]4O)nc4ccsc34)c(F)c2)cn1 [Compound 53, 7-[[2-fluoro-4-(1-methylpyrazol-4-yl)phenyl]methyl]-N-[(3S,4S)-4-hydroxytetrahydropyran-3-yl]thieno[3,2-b]pyridine-5-carboxamide]
– | > 10 | 53.1 | Cn1cc(-c2ccc(Cc3cc(C(=O)N[C@H]4CCCCC[C@@H]4O)nc4ccsc34)c(F)c2)cn1 [Compound 54, 7-[[2-fluoro-4-(1-methylpyrazol-4-yl)phenyl]methyl]-N-[(1S,2S)-2-hydroxycycloheptyl]thieno[3,2-b]pyridine-5-carboxamide]
– | 5.7 | 31.1 | Cn1cc(-c2ccc(Cc3cc(C(=O)N[C@@H]4CC[C@H]4O)nc4ccsc34)c(F)c2)cn1 [Compound 55, 7-[[2-fluoro-4-(1-methylpyrazol-4-yl)phenyl]methyl]-N-[(1R,2R)-2-hydroxycyclobutyl]thieno[3,2-b]pyridine-5-carboxamide]
– | 3.26 | 51 | Cn1cc(-c2ccc(Cc3cc(C(=O)N[C@H]4CCC[C@@H]4O)nc4ccsc34)c(F)c2)cn1 [Compound 56, 7-[[2-fluoro-4-(1-methylpyrazol-4-yl)phenyl]methyl]-N-[(1S,2S)-2-hydroxycyclopentyl]thieno[3,2-b]pyridine-5-carboxamide]
– | 2.64 | 80.1 | Cn1cc(-c2cc(F)c(Cc3cc(C(=O)N[C@H]4CCCC[C@@H]4O)nc4ccsc34)c(F)c2)cn1 [Compound 57, 7-[[2,6-difluoro-4-(1-methylpyrazol-4-yl)phenyl]methyl]-N-[(1S,2S)-2-hydroxycyclohexyl]thieno[3,2-b]pyridine-5-carboxamide]
– | 6.03 | 50.2 | Cn1cc(-c2cc(F)c(Cc3cc(C(=O)N[C@H]4CCC[C@@H]4O)nc4ccsc34)c(F)c2)cn1 [Compound 58, 7-[[2,6-difluoro-4-(1-methylpyrazol-4-yl)phenyl]methyl]-N-[(1S,2S)-2-hydroxycyclopentyl]thieno[3,2-b]pyridine-5-carboxamide]
– | 2.84 | 88.5 | Cn1cc(-c2cc(F)c(Cc3cc(C(=O)N[C@H]4CCOC[C@@H]4O)nc4ccsc34)c(F)c2)cn1 [Compound 59, 7-[[2,6-difluoro-4-(1-methylpyrazol-4-yl)phenyl]methyl]-N-[(3R,4S)-3-hydroxytetrahydropyran-4-yl]thieno[3,2-b]pyridine-5-carboxamide]
– | 5.6 | 71.6 | Cn1cc(-c2cc(F)c(Cc3cc(C(=O)N[C@H]4COCC[C@@H]4O)nc4ccsc34)c(F)c2)cn1 [Compound 60, 7-[[2,6-difluoro-4-(1-methylpyrazol-4-yl)phenyl]methyl]-N-[(3S,4S)-4-hydroxytetrahydropyran-3-yl]thieno[3,2-b]pyridine-5-carboxamide]
